Results as given in patent US8933133B2, “Animal feeds containing polyols” (ADM Alliance Nutrition, Inc., priority 2006, dated 2015).

Legend:
rumen fluid = experiment: In vitro fermentation of polyols in an artificial rumen environment using rumen fluid as inoculum; conditions: for extent of fermentation: by 24 hours, judged from final gas volume and VFA; for extent of fermentation / fermentation rate: in words; for fermentation rate: in vitro rumen fermentation, gas production monitored every 30 minutes
Description: Fermentations were performed on two separate days where gas production was monitored every 30 minutes. In addition, pH, ammonia (NH3), and volatile fatty acid (“VFA”) production were measured after 24 hours. Duplicate samples of each compound were evaluated using in vitro rumen fermentations.
Duplicate samples of these compounds were fermented in vitro using rumen fluid as inoculum. Samples were weighed into 150 mL serum bottles (0.3 grams per bottle) using a CO2 atmosphere to provide an anaerobic environment. A standard buffered media was prepared (no additional feed matter was included in the fermentation), degassed, and added to the serum bottles (see, Goering, H. K., and P. J. Van Soest, “Forage Fiber Analyses (Apparatus, Reagents, Procedures, and Some Applications),” Agric. Handbook, No 379, ARS-USDA, Washington, D.C., 1970). Rumen fluid was obtained from a dairy cow, filtered, and added to the serum bottles as 20% of the total fluid addition (30 mL total fluid volume). The serum bottles were sealed, placed in an incubator, and the fermentation was allowed to proceed. Fermentations were performed on two separate days, during which time gas production was monitored every 30 minutes and pH, NH3, and VFA production measured after 24 hours.

[1] = test system: circulating non-esterified fatty acids (NEFA); experiment: Circulating non-esterified fatty acids in lambs fed a polyol supplement; type: in vivo; conditions: lambs fed restricted diet (75% of maintenance energy requirements), supplement 25 to 45 grams/lamb, blood 1-24 hours after dose
Description: In this Example, the effect of a diet comprising an isolated or purified polyol on the level of circulating non-esterified fatty acids (“NEFA”) in lambs was examined.
Four lambs were used in this Example. The lambs were fed a basal diet the first week followed by at least 4 weeks during which the supplement treatments were evaluated. The lambs were fed a diet supplement comprising sorbitan during the second and third weeks of the treatment. The lambs were fed a diet supplement comprising polyglycerol during the fourth and fifth weeks of the treatment. The diet supplements were fed separate from the basal diet feed.

| extent of fermentation (rumen fluid) | Structure (SMILES) | rumen escape (rumen fluid; estimated from rate of in vitro fermentation / gas production, by weight escaping fermentation in the rumen) | fermentation rate (rumen fluid) | change in circulating NEFA levels [1] |
| --- | --- | --- | --- | --- |
| largely fermented by 24 hours | OCC(O)CO [Glycerol, glycerol] |  |  |  |
|  | OC[C@@H](O)[C@H]1OC[C@H](O)[C@H]1O [Sorbitan, 1,4-anhydro-D-sorbitol] | greater than 80% | slower than glucose, sorbitol, or glycerol | decrease in circulating NEFA levels |
| largely fermented by 24 hours | OC[C@@H](O)[C@@H](O)[C@H](O)[C@@H](O)CO [Sorbitol, sorbitol] |  | slower than glucose |  |
